Tested on: NL5901, CL2006 and CL4176 worms
Assay: Motor function (thrashing, paralysis) in worms expressing human α-synuclein or Aβ in muscles
Format: in vivo, C. elegans
Settings: NL5901, human α-synuclein within muscles
Source text: FIG. 21, panels A-F: AIC106 prevents neuronal loss and proteotoxicity in strains expressing human neurotoxic proteins. Panel A) Dopaminergic neuronal loss in day-5 UA44 worms was quantified by scoring percentage of worms with intact 4-CEP neurons in AIC106 and DMSO-control treatment. [N=3 independent experiments (mean±SD). ***p<0.001, by one-way ANOVA with Tukey's multiple comparisons test]. Motor function in (panel B) day-7 NL5901 and (panel C) day-5 CL2006 worms were quantified by scoring number of thrashes for an individual worm over the period of 30 seconds (dots) in AIC106 and DMSO-control treatment. […] Panel D) Motor function in temperature sensitive (enhanced paralysis at 25° C.) CL4176 worms was determined by scoring percent of worms paralyzed in AIC106 and DMSO-control treatment. […] P-value calculated by Logrank test]. Panel F) Effect of AIC106 on polyQ40 aggregation was determined by scoring number of polyQ40-YFP fluorescent puncta in an individual AM141 worm treated with AIC106 and DMSO-control. […]
FIG. 22, panels A-H: AIC106-induced HLH-30 expression is mediated by the nuclear hormone receptor DAF-12. […] Panel B) Relative fold change in mRNA of hlh-30 compared to DMSO-control was quantified using qRT-PCR in young adult wild-type N2 and daf-12(rh61rh411) worms post-24 hours treatment with AIC106. […]

| SMILES | motor function (thrashing rate) |
| --- | --- |
| Cc1cccc(C)c1OCc1cc(C(=O)N2CCC(c3ccncc3)CC2)no1 [DFA, dafadine-A, reference compound] | improved motor function |
| O=c1oc2c3c4c(cc2c2c1CCC2)CCCN4CCC3 [C1, 2,3,6,7,10,11-Hexahydro-1H,5H-cyclopenta(3,4)(1)benzopyrano(6,7,8-ij)quinolizin-12(9H)-one] | improved motor function |

Reference: patent US12673039B2, “Methods of inducing autophagy using coumarin derivatives and related compounds” (Buck Institute for Research on Aging, priority 2019, dated 2026)
